Test results published in patent publication US8394791B2, “Crystalline, enantiomerically pure salt form of a beta-agonist, and the use thereof as a drug” (Boehringer Ingelheim International GmbH, priority 2008, dated 2013).

Tests used:
[1] = Sorption profile (DVS sorption balance), hygroscopic characteristics; format: physicochemical; conditions: relative humidity range between 10-90%; crystalline form
Procedure: Sorption Profile (DSV Diagram, Kinetic & Isothermic Plot, FIG. 3)
Technical Data Relating to the Sorption Balance Used:
DVS-1 made by Surface Measurement Systems (=SMS) for analysing the hygroscopic characteristics; humidity profile of 10-90% r.h. In 10% steps, recording both a sorption and a desorption profile, weight: 10-20 mg

[2] = Thermoanalysis (DSC/TG); format: physicochemical; conditions: heating rate 10 K/min, crystalline form (FIG. 2)
Procedure: Thermoanalysis (DSC/TG Diagram, FIG. 2)
Technical Data Relating to the Thermoanalytical DSC Device Used:
DSC 822 made by Mettler Toledo; heating rate: 10 K/min; type of crucible: perforated aluminium crucible; atmosphere: N2, 80 ml/min flux; weight: 3-10 mg.
Technical Data Relating to the Thermoanalytical TG Device Used:
TGA/SDTA 851 Made by Mettler Toledo with IR coupling (Nicolet FT-IR 4700) for analysing the volatile fractions driven off; heating rate: 10 K/min; type of crucible: open aluminium oxide crucible; atmosphere: N2, 20 ml/min flux; weight: 15-25 mg.

water absorption [1]: less than 0.5 wt. %
thermally stable at a thermal load of up to [2]: up to 210 °C
SMILES: CCC1(CC)OC(=O)N(CCC(C)(C)NC[C@H](O)c2ccc(O)c(NS(C)(=O)=O)c2)c2ccccc21 [compound 1, N-(5-{(R)-2-[3-(4,4-diethyl-2-oxo-4H-benzo[d][1,3]oxazin-1-yl)-1,1-dimethyl-propylamino]-1-hydroxy-ethyl}-2-hydroxy-phenyl)-methanesulphonamide]
